In PMC8750417, “Intracellular Amplifiers of Reactive Oxygen Species Affecting Mitochondria as Radiosensitizers” (Cancers, 2021):

What was measured:
[1] = test system: A2780 cells; test: Mitochondrial ROS (MitoSOX, flow cytometry), A2780; assay type: cell-based, human
Method: Monitoring mitochondrial ROS (mROS)
A2780 cells were seeded in RPMI 1640 medium containing 5% FBS, 1% L-glutamine and 1% penicillin/streptomycin in a 96-well microtiter plate (total volume 0.1 mL) at a density of 250 cells/µL one day before the experiment. On the day of the experiment, the cells were washed with DPBS buffer and a fresh portion of RPMI 1640 medium containing 5% FBS, 1% L-glutamine and 1% penicillin/streptomycin (100 µL) was added followed by addition of compounds (1 μL of stock solutions in DMSO, final concentration of the prodrugs was 5, 10 μM and 30 μM) or carrier only (DMSO, 1 µL, final concentration 1 %, v/v) and incubation for 1 or 2 h in the dark chamber filled with CO 2 (5%) at 37 °C. After that, the cells were washed twice with DPBS buffer and the medium was replaced with HBSS (Hanks' Balanced Salt solution, 50 μL) containing MitoSOX (Red Mitochondrial Superoxide Indicator, Thermo-Fisher, Catalog number M36008, final concentration 5 µM obtained by adding 0.5 µ L of the 0.5 mM stock solution of MitoSOX in DMSO to the HBSS ) […]
(1 picture or pasted object on this page, not shown here) […]
and the cells were incubated in the dark chamber filled with CO2 (5%) at 37 °C for 20 min.
Next, the cells were detached from the culture dish using trypsin/EDTA (0.025%/0.01%, v/v, 50 µL). The cells were re-suspended in RPMI 1640 medium containing 5% FBS, 1% L-glutamine and 1% penicillin/streptomycin (100 µL). Finally, the fluorescence of live cells (λex = 488 nm, λem = 578 nm) in the suspensions was determined by using flow cytometry

[2] = n-octanol/water partition coefficient (logP) by RP-TLC; assay type: physicochemical; details: for logP (Hydrolyzed Prodrug): n-octanol/water partition coefficient of the hydrolyzed boronic acid (_BA) form of the prodrug named; for logP (Prodrug): n-octanol/water partition coefficient of the intact prodrug (or control 2c_c), RP-TLC, MOPS pH 7.4
Method: Determination of n-octanol/water partition coefficients (LogP) […]
mixture of dichloromethane/CH3OH at proper concentrations. Commercially available […]
7.4) (6/4, v/v) was used. The solvent migration distance was around 4.5 cm. The plates […]
and its distance was manually measured. All measurements were done in at least triplicate and average values were used in further calculations. All experiments were performed at ambient temperature (22 ± 2 °C). […]

[3] = Solubility in RPMI 1640 medium, precipitation seen by bright field optical microscopy; details: DMSO 1%; for Solubility: 48 h incubation in RPMI 1640, FBS 5%, first signs of precipitation; for first signs of precipitation: immediately after dilution in RPMI 1640, FBS 5%
Method: The latter medium was selected, since we used it for the cellular assays. […] Then we monitored the formation of (not detectable in the previous experiment) aggregated species in prodrug solutions that appeared transparent (concentrations < 50 µM) by using dynamic light scattering. […]
Solubility of drugs in aqueous buffers
Observing prodrug precipitation by using bright field optical microscopy […]
glutamine (1 %), and penicillin/streptomycin (1 %) was filled into 96-well microtiter plates (100 µL for each well) and compounds in DMSO stock solution (1 µL) were added. Each well was monitored by using bright field optical microscopy both immediately after […]

[4] = Prodrug-induced generation of ROS in cell free settings (DCFH/H2O2); details: for ROS Release Efficacy: relative acceleration of the rate of DCFH fluorescence increase with H2O2, pH 7.4, FeSO4 = 1.0
Text: As previously reported, the NAAF-prodrugs react with ROS like H2O2, first leading to the cleavage of the B-C-bond with the formation of the phenol derivatives (product 2c-1, Figure S49, SI). The latter compounds exist in equilibrium with the corresponding phenolates. The phenolates undergo the spontaneous 1,6-elimination of para-quinone methide (QM) followed by the release of CO2 with the formation of the N-alkylaminoferrocene NAAF drugs (product 2c-2, Figure S46, SI). By using electrospray ionization mass spectrometry (ESI–MS), we confirmed for one representative prodrug 2c that it reacts with H2O2 in cell free settings according to this common mechanism (ESI-MS, Figures S46–S48, SI). The NAAF is further oxidized by H2O2 or molecular oxygen with the generation of drug NAAF^+ and highly toxic HO• or/and O2^•−. Finally, the NAAF^+ is reduced by glutathione (GSH), thereby closing the catalytic cycle, in which the NAAF acts as a catalyst. We evaluated the formation of HO• or/and O2^•− by using 2′,7′-dichlorodihydrofluorescein (DCFH) as a probe (Table 1, Figure S49, SI). This probe is oxidized to the fluorescent product 2′,7′-dichlorofluorescein (DCF) in the presence of HO• or/and O2^•−. […] The lower activity of 2c and 2d correlates with their higher lipophilicity and their correspondingly higher propensity to form aggregates in aqueous solution (Figure S45, SI).
Prodrug-induced generation of ROS in cell free settings
2',7'-Dichlorodihydrofluorescein diacetate (DCFH-DA, 4.9 mg) was dissolved in DMF (100 μL) and mixed with aqueous NaOH (0.1 M, 900 μL). The resulting mixture was incubated for 30 min at 22 °C in the dark to obtain a stock solution of 2',7'-dichlorodihydrofluorescein (DCFH, 10 mM). Next, DCFH (1 µL ) was added to the solution containing MOPS buf fer (100 mM, pH 7.4), N,N,N'N' -e thylenediaminetetraacetic acid (EDTA , 10 mM) and glutathione (GSH , 5 mM) (1 mL, final concentration of DCFH 10 μM). The reaction mixture was heated to 37 °C and H2O2 (1 µL, final concentration 10 mM) was added. The reaction was monitored by fluorescence spectroscopy: λex = 501 nm, λem = 523 nm. After around 5 min, prodrugs (1 mM in DMF, 10 μL) or positive control FeSO4 (1 mM in water, 10 μL) were added, and the fluorescence monitoring was continued until the fluorescence signal growth was stalled after approximately 100 to 300 min. A representative kinetics of ROS […]
The data are presented in Table 1 as relative acceleration of the rate of the fluorescence increase, where the rate of the fluorescence increase obtained in the presence of positive control FeSO4 was set […]
y = a time + b (a = (dF/dt) , min-1)
Figure S49. Increase of the fluorescence intensity (λex = 501 nm, λem = 523 nm) upon oxidation of DCFH by H2O2 in the presence of FeSO4. Experimental details are provided in the description above. The time point of the FeSO4 addition is indicated with a black […]
(also on this page, place not known: ° C µL) buffer N,N,N'N'-ethylenediaminetetraacetic (EDTA, (GSH, ° C FeSO 4 (λ ex λ em Fluorescence (a.u.) (dF/dt)0, min -1 Addition of)
(1 picture or pasted object on this page, not shown here)

[5] = test system: A2780 cells; test: Cell viability, MTT assay, A2780; assay type: cell-based, human
Method: Determination of viability of cells in the presence of prodrugs and controls A2780 and BL-2 cells The medium was removed, and the cells were washed two times with DPBS, trypsinated, and resuspended in RPMI 1640 medium (A2780) supplemented with 5% FBS (for 24 h and 48 h assay) or 10% FBS (for 96 h assay) , 1% L-glutamine, and 1% penicillin/streptomycin.
A2780 cells: This suspension was spread in the wells of a 96 -well microtiter plate (25000 cells for A2780 per well per 100 μL) and left standing at 37 °C in the chamber filled with CO2 (5%) for overnight. Stock solutions of prodrugs of different concentra tions (1 μL, solvent dmso, final concentrations in wells were 2, 5, 10, 30, 50 μM) were added to the wells and incubated for specific periods of time. Four experiments were conducted for each concentration of the prodrug. Finally, 3-(4,5-dimethylthiazol-2-yl)-2,5-diphenyltetrazolium bromide (MTT, 20 μL of the solution prepared by dissolving MTT (5 mg) in DPBS buffer (1 mL)) was added to each well, incubated for 3 h, treated with sodium dodecyl sulfate (SDS) solution (90 μL, 10% solution in 0.01 M aqueous HC l), and incubated overnight. Afterward, the intensity of the absorbance at 590 nm was measured.
MTT is converted in live cells to blue dye with the absorbance maximum λ max at 590 nm.
The absorbance at 690 nm was taken as a baseline value. The baseline corrected absorbance at 590 nm (A(590 nm) − A(690 nm)) was applied to calculate the relative number of viable cells. IC50 values were determined by fitting the experimental data expressing the number of viable cells (%, Y-axis) versus drug concentration (μM, X-axis) with a line curve and the X-axis value corresponding to 50% viability was considered as IC50 value according to the line curve (Figure S50, Table S2). […]

[6] = test system: chronic lymphocytic leukemia (CLL) cells; test: Viability of primary CLL cells (CellTiter Glo); assay type: cell-based, human; details: viability of CLL vs MNC, 48 h; for 2c at 3.3 and 10 µM
Text: Determination of viability of primary cancer (CLL) and normal (MNC) cells in the […]
Clinical samples from chronic lymphocytic leukemia (CLL) patients (N=6, CLL cells) and healthy donors (N=6; peripheral blood mononuclear cells, MNCs) were collected at the University Hospital Heidelberg, Germany. Informed consent was obtained in accordance with the Declaration of Helsinki. Sample collection and analysis was approved by the ethics committee of the University of Heidelberg (S-254/2016). Blood was separated by a Ficoll gradient (GE Healthcarey), and cells were cryopreserved. Drug sensitivity screening was performed in 384-well format (Greiner Bio One) with 10 different prodrug […]
4x10^4 cells per well. Cells were cultured in RPMI-1640 (Invitrogen) supplemented with penicillin/streptomycin (Invitrogen), L-glutamine (Invitrogen) and 10% pooled and heat inactivated AB-type human serum (Sigma-Aldrich). Cell viability was assessed by quantification of ATP (CellTiter Glo®, Promega) 48 hours after drug application.
Luminescence was measured on a Tecan Infinite F200 Microplate Reader. Viability was calculated as % of solvent (DMSO) treated control. Representative plots of cell viability

Structure (SMILES) | mitochondrial ROS (mROS) vs non-treated cells [1] | logP (Hydrolyzed Prodrug) [2] | logP (Prodrug) [2] | Solubility [3] [µM] | first signs of precipitation [3] [µM] | ROS Release Efficacy [4] | IC50 ([5]; A2780, 24 h incubation) [µM] | IC50 ([5]; A2780, 48 h incubation) [µM] | IC50 ([5]; A2780, 96 h incubation) [µM] | cancer cell specificity, primary CLL cells vs MNCs [6] | ROS-generating activity, fold lower than that of 2a and 2b ([4]; cell free DCFH assay) | cell viability at which the effect is saturated ([5]; A2780, 24 h) [%] | cell viability at which the effect is saturated ([5]; A2780, 48 h) [%] | cell viability at which the effect is saturated ([5]; A2780, 96 h) [%]
CC1(C)OB(c2ccc(COC(=O)N[c-]3cccc3)cc2)OC1(C)C.[Fe+2].c1cc[cH-]c1 [5a] | substantially weaker |  |  |  |  |  |  |  |  |  |  |  |  | 
CC1(C)OB(c2ccc(COC(=O)N(Cc3cn(Cc4ccccc4)nn3)[c-]3cccc3)cc2)OC1(C)C.[Fe+2].c1cc[cH-]c1 [2a] |  | 2.92 ± 0.14 | 5.27 ± 0.10 | 100 | 50 | 0.74 ± 0.19 | 23.7 ± 0.6 | 16.2 ± 1.8 | 10.5 ± 0.7 | some specificity towards primary CLL cells |  |  |  | 
CC1(C)OB(c2ccc(COC(=O)N(Cc3cn(Cc4ccc(Cn5cc(CCc6ccccc6)nn5)cc4)nn3)[c-]3cccc3)cc2)OC1(C)C.[Fe+2].c1cc[cH-]c1 [2d] |  | 3.42 ± 0.14 | 5.56 ± 0.14 | 30 | 30 | 0.37 ± 0.13 | > 30 | > 30 | 8.3 ± 1.5 | some specificity towards primary CLL cells | ~ 2 fold | 70 | 50 | 43
